# From article PMC4856313 (PLoS Pathogens, 2016)
# Like-named read-outs stand apart in the source and are kept apart here.
# Tests used:
# MnaA = target: T1, MnaA (Staphylococcus aureus, UniProt Q9REV4); test: X-ray crystal structure, […] Å; type: binding; conditions: 4 mM Na2UDP added; one UDP per chain; also co-purified with the protein
# T1 construct: MnaA-His6 in the activity assays; purification in supplement (S1 Text); dimer in crystal; residues from 376 to the C-terminus not modelled
# [1] = test system: T2, Staphylococcus aureus MRSA COL; test: microbe, parasite or virus in culture; set-up: minimum inhibitory concentration of antibiotics against staphylococcal strains
# T2 construct: COL (MRSA), parental wild type
# Text: (§1) Minimum inhibitory concentrations (MIC; μg ml^-1) of β-lactams imipenem (IPM), nafcillin (Naf), and dicloxacillin (Dic) are provided. […] To directly evaluate the consequence of these mnaA mutations, WTA of the corresponding mutants was extracted and polymer levels visualized on an alcian blue-silver stained SDS PAGE gel (Fig 3A and S1 Fig).
# [2] = test system: T3, Staphylococcus epidermidis MRSE CLB26329; test: microbe, parasite or virus in culture; set-up: minimum inhibitory concentration of antibiotics against staphylococcal strains
# T3 construct: CLB26329 (MRSE), parental wild type
# Text: as §1
# [3] = test system: CC(=O)N[C@@H]1[C@@H](OP(=O)(O)OP(=O)(O)OC[C@H]2O[C@@H](n3ccc(=O)[nH]c3=O)[C@H](O)[C@@H]2O)O[C@H](CO)[C@@H](O)[C@@H]1O; test: purified protein; conditions: reverse reaction, 10 mM NaPi, 50 mM NaCl, pH 8.0, 30°C, MnaA-His6
# [4] = test system: CC(=O)N[C@H]1[C@@H](OP(=O)(O)OP(=O)(O)OC[C@H]2O[C@@H](n3ccc(=O)[nH]c3=O)[C@H](O)[C@@H]2O)O[C@H](CO)[C@@H](O)[C@@H]1O; test: purified protein; conditions: forward reaction, 10 mM NaPi, 50 mM NaCl, pH 8.0, 30°C, MnaA-His6
# [5] = read-out: MIC (µg ml-1) / Vanco
# T1 sequence (Q9REV4 entry or part of it): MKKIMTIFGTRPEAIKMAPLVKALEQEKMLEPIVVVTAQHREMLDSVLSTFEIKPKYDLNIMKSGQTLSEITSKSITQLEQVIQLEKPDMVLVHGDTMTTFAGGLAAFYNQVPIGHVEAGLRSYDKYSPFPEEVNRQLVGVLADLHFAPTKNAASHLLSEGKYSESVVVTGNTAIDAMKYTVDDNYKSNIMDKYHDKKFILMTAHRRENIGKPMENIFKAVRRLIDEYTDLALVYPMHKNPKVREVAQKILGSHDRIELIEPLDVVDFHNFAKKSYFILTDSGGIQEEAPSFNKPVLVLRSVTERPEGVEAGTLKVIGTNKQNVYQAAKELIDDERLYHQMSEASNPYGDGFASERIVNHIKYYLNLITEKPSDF
molecule,measurement,setting,value
O=c1ccn([C@@H]2O[C@H](COP(=O)(O)OP(=O)(O)O)[C@@H](O)[C@H]2O)c(=O)[nH]1 [UDP],"X-ray crystal structure, 1.9 Å",MnaA,The model also contains one molecule of UDP per chain
Cc1onc(-c2c(Cl)cccc2Cl)c1C(=O)N[C@@H]1C(=O)N2[C@@H]1SC(C)(C)[C@@H]2C(=O)O [dicloxacillin],MIC,[1]; read-out: MIC (µg ml-1) / Dic,> 64 µg/mL
same,MIC,[2]; read-out: MIC (µg ml-1) / Dic,> 64 µg/mL
C[C@@H](O)[C@H]1C(=O)N2C(C(=O)O)=C(SCCNC=N)C[C@H]12 [imipenem],MIC,[1]; read-out: MIC (µg ml-1) / IPM,32 µg/mL
same,MIC,[2]; read-out: MIC (µg ml-1) / IPM,64 µg/mL
CCOc1ccc2ccccc2c1C(=O)N[C@@H]1C(=O)N2[C@@H]1SC(C)(C)[C@@H]2C(=O)O [nafcillin],MIC,[1]; read-out: MIC (µg ml-1) / Naf,> 64 µg/mL
same,MIC,[2]; read-out: MIC (µg ml-1) / Naf,> 64 µg/mL
CN[C@H](CC(C)C)C(=O)N[C@H]1C(=O)N[C@@H](CC(N)=O)C(=O)N[C@H]2C(=O)N[C@H]3C(=O)N[C@H](C(=O)N[C@H](C(=O)O)c4cc(O)cc(O)c4-c4cc3ccc4O)[C@H](O)c3ccc(c(Cl)c3)Oc3cc2cc(c3O[C@@H]2O[C@H](CO)[C@@H](O)[C@H](O)[C@H]2O[C@H]2C[C@](C)(N)[C@H](O)[C@H](C)O2)Oc2ccc(cc2Cl)[C@H]1O [vancomycin],MIC,[1]; [5],2 µg/mL
same,MIC,[2]; [5],4 µg/mL
MnaA (Staphylococcus aureus),Km,[3],131 ± 21 µM
same,Km,[4],411 ± 57 µM
